Measured values as given in US20060069132A1, “Azolecarboxamide herbicides” (priority 2004, published 2006).

Key:
[1] = test system: large crabgrass; assay: Test A pre-/postemergence herbicide test; format: in vivo, Digitaria sanguinalis
Summary of the method: (§1)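 Visual injury rating on a 0–100 scale (0 no effect, 100 complete control) versus untreated controls, about ten days after treatment in greenhouse. Pre: directed soil spray onto seeded sandy loam. Post: spray to runoff on plants 2–10 cm tall at one- to two-leaf stage.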

[2] = test system: smallflower umbrella sedge; assay: Test C flooded paddy test; format: in vivo, Cyperus difformis; settings: for Plant response rating, Sedge, Umbrella: visual rating after 12 to 14 days
[3] = test system: kochia; assay: Test C pre-/postemergence herbicide test; format: in vivo, Kochia scoparia; settings: for Kochia plant response rating: 500 g ai/ha
Summary of the method: (§2)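 Pre- and postemergence application, solvent/surfactant formulation; post at 1- to 4-leaf stage (2–18 cm). Greenhouse 12–14 d. Visual rating vs controls, 0 = no effect, 100 = complete control.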

[4] = test system: velvetleaf; assay: Test B pre-/postemergence herbicide test; format: in vivo, Abutilon theophrasti
Summary of the method: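 Response was scored visually 13 to 15 days after treatment against untreated greenhouse controls, 0 meaning no effect and 100 complete control. Formulations (solvent mixture plus surfactant) went onto soil after planting, onto foliage of 1- to 4-leaf plants, and onto 2-leaf plants in a flooded paddy set including rice and barnyardgrass.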

[5] = test system: Surinam grass; assay: Test C pre-/postemergence herbicide test; format: in vivo, Urochloa decumbens; settings: for Surinam Grass plant response rating: 500 g ai/ha
Summary of the method: as §2

[6] = test system: corn; assay: Test C pre-/postemergence herbicide test; format: in vivo, Zea mays; settings: for Corn plant response rating: 500 g ai/ha
Summary of the method: as §2

[7] = test system: morningglory; assay: Test C pre-/postemergence herbicide test; format: in vivo, Ipomoea coccinea; parameters: key to Plant response rating, Morningglory: 0 = no effect, 100 = complete control; settings: for Morningglory plant response rating: 500 g ai/ha
Summary of the method: as §2

[8] = test system: barnyardgrass; assay: Test A pre-/postemergence herbicide test; format: in vivo, Echinochloa crus-galli
Summary of the method: as §1

[9] = test system: velvetleaf; assay: Test C pre-/postemergence herbicide test; format: in vivo, Abutilon theophrasti; settings: for Velvetleaf plant response rating: 500 g ai/ha
Summary of the method: as §2

[10] = Postemergence, 500 g ai/ha, 0 to 100 scale, 0 no effect, 100 complete control
[11] = Postemergence, 2000 g ai/ha, 0 to 100 scale, 0 no effect, 100 complete control
[12] = Preemergence, 500 g ai/ha, visual rating, 0 to 100 scale (0 no effect, 100 complete control)
[13] = Preemergence, 2000 g ai/ha, 0 to 100 scale, 0 no effect, 100 complete control
[14] = 62 g ai/ha, scale 0 to 100 (0 no effect, 100 complete control)
[15] = 125 g ai/ha, scale of 0 to 100, 0 is no effect, 100 is complete control
[16] = 500 g ai/ha, scale 0 to 100 (0 no effect, 100 complete control)
[17] = 125 g ai/ha, scale 0 (no effect) to 100 (complete control), visual, 12 to 14 days, preemergence
[18] = Postemergence, 250 g ai/ha, scale 0 to 100, 0 no effect, 100 complete control
[19] = Preemergence, scale 0 to 100, 0 no effect, 100 complete control
[20] = postemergence, 125 g ai/ha, scale 0 to 100
[21] = postemergence, 62 g ai/ha, scale 0 to 100
[22] = Postemergence, 500 g ai/ha, visual rating after 13 to 15 days, scale 0 (no effect) to 100 (complete control)
[23] = preemergence, 125 g ai/ha, 0 to 100 scale, 0 is no effect, 100 is complete control
[24] = 250 g ai/ha, scale 0 to 100 (0 no effect, 100 complete control), visual, 12 to 14 days, preemergence
[25] = Postemergence, 125 g ai/ha, scale 0 to 100, 0 no effect, 100 complete control

In the case of CCOC(=O)c1cc(NC(=O)c2cc(C(C)(C)C)nn2CC)ccc1OC [Compound 96], the “Crabgrass, Large plant response rating” value [1, 10] is reported as 30, the “Plant response rating, Crabgrass, Large” value [1, 11] is reported as 70 and the “Crabgrass, Large plant response rating” value [1, 12] is reported as 80. The “Crabgrass, Large plant response rating” value [1, 13] was 100, the “Sedge, Umbrella plant response rating” value [2, 14] was 90 and the “Sedge, Umbrella plant response rating” value [2, 15] was 90. The “Sedge, Umbrella plant response rating” value ([2]; 250 g ai/ha, scale of 0 to 100, 0 is no effect, 100 is complete control) was 90, the “Plant response rating, Sedge, Umbrella” value [2, 16] was 95 and the “Plant response rating (0 = no effect, 100 = complete control), Kochia” value ([3]; 62 g ai/ha, preemergence) was 90. The “Plant response rating, Kochia” value [3, 17] was 95, the “Kochia plant response rating” value ([3]; Postemergence, scale 0 to 100) was 90 and the “Plant response rating, Kochia” value [3, 18] was 85. For the same compound, the “Kochia plant response rating” value [3, 19] was 100, the “Plant response rating, Kochia” value [3, 20] was 80 and the “Plant response rating, Kochia” value [3, 21] was 80. For the same compound, the “Plant response rating, Velvetleaf” value ([4]; 500 g ai/ha, visual rating 0-100, 0 no effect, 100 complete control, preemergence) was 90, the “Plant response rating, Velvetleaf” value [4, 22] was 80 and the “Velvetleaf plant response rating” value ([4]; postemergence, 125 g ai/ha, visual rating, scale 0 (no effect) to 100 (complete control)) was 70. For the same compound, the “Plant response rating, Velvetleaf” value [4, 23] was 50, the “Plant response rating (0 = no effect, 100 = complete control), Surinam Grass” value ([5]; 62 g ai/ha, preemergence) was 0 and the “Plant response rating, Surinam Grass” value [5, 17] was 10. The “Surinam Grass plant response rating” value ([5]; Postemergence, scale 0 to 100) was 60, the “Plant response rating, Surinam Grass” value [5, 18] was 40 and the “Surinam Grass plant response rating” value [5, 19] was 65. For the same compound, the “Plant response rating, Surinam Grass” value [5, 20] was 40, the “Plant response rating, Surinam Grass” value [5, 21] was 0 and the “Plant response rating (0 = no effect, 100 = complete control), Corn” value ([6]; 62 g ai/ha, preemergence) was 15. For the same compound, the “Plant response rating, Corn” value [6, 17] was 15, the “Plant response rating, Corn” value [6, 24] was 30 and the “Corn plant response rating” value ([6]; Postemergence, scale 0 to 100) was 45. For the same compound, the “Plant response rating, Corn” value [6, 18] was 35, the “Corn plant response rating” value [6, 19] was 40 and the “Plant response rating, Corn” value [6, 20] was 30. The “Plant response rating, Corn” value [6, 21] was 30, the “Plant response rating (0 = no effect, 100 = complete control), Morningglory” value ([7]; 62 g ai/ha, preemergence) was 0 and the “Plant response rating, Morningglory” value [7, 17] was 50. The “Morningglory plant response rating” value ([7]; Postemergence, scale 0 to 100) was 50, the “Plant response rating, Morningglory” value [7, 18] was 30 and the “Morningglory plant response rating” value [7, 19] was 100. For the same compound, the “Plant response rating, Morningglory” value [7, 20] was 5, the “Plant response rating, Morningglory” value [7, 21] was 0 and the “Barnyardgrass plant response rating” value [8, 10] was 60. The “Plant response rating, Barnyardgrass” value [8, 11] was 80, the “Barnyardgrass plant response rating” value [8, 12] was 70 and the “Barnyardgrass plant response rating” value [8, 13] was 90. The “Plant response rating, Velvetleaf” value [9, 17] was 50, the “Velvetleaf plant response rating” value ([9]; Postemergence, scale 0 to 100) was 95 and the “Plant response rating, Velvetleaf” value [9, 18] was 70. The “Velvetleaf plant response rating” value [9, 19] was 100, the “Plant response rating, Velvetleaf” value [9, 20] was 70 and the “Plant response rating, Velvetleaf” value [9, 21] was 40.
C#CCNC(=O)c1cccc(NC(=O)c2cc(C(C)(C)C)nn2CC)c1 [Compound 47] was tested, and the “Plant response rating, Crabgrass, Large” value [1, 10] was 85, the “Plant response rating, Crabgrass, Large” value [1, 11] was 100 and the “Crabgrass, Large plant response rating” value [1, 12] was 55. For the same compound, the “Crabgrass, Large plant response rating” value [1, 13] was 90, the “Sedge, Umbrella plant response rating” value [2, 14] was 30 and the “Sedge, Umbrella plant response rating” value [2, 15] was 70. The “Plant response rating, Sedge, Umbrella” value ([2]; 250 g ai/ha, scale 0 to 100 (0 no effect, 100 complete control)) was 80, the “Plant response rating, Sedge, Umbrella” value [2, 16] was 80 and the “Plant response rating (0 = no effect, 100 = complete control), Kochia” value ([3]; 62 g ai/ha, preemergence) was 10. The “Plant response rating, Kochia” value [3, 17] was 10, the “Plant response rating, Kochia” value [3, 24] was 10 and the “Kochia plant response rating” value ([3]; Postemergence, scale 0 to 100) was 100. The “Plant response rating, Kochia” value [3, 25] was 100, the “Plant response rating, Kochia” value [3, 18] was 100 and the “Kochia plant response rating” value [3, 19] was 40. The “Plant response rating, Kochia” value [3, 21] was 100, the “Plant response rating, Velvetleaf” value [4, 22] was 70 and the “Velvetleaf plant response rating” value ([4]; Preemergence, 500 g ai/ha, scale 0 to 100) was 100. The “Plant response rating, Velvetleaf” value [4, 23] was 30, the “Plant response rating (0 = no effect, 100 = complete control), Surinam Grass” value ([5]; 62 g ai/ha, preemergence) was 0 and the “Plant response rating, Surinam Grass” value [5, 17] was 10. The “Plant response rating, Surinam Grass” value [5, 24] was 60, the “Surinam Grass plant response rating” value ([5]; Postemergence, scale 0 to 100) was 70 and the “Plant response rating, Surinam Grass” value [5, 18] was 60. The “Surinam Grass plant response rating” value [5, 19] was 80, the “Plant response rating, Surinam Grass” value [5, 21] was 30 and the “Plant response rating (0 = no effect, 100 = complete control), Corn” value ([6]; 62 g ai/ha, preemergence) was 0. For the same compound, the “Plant response rating, Corn” value [6, 17] was 0, the “Plant response rating, Corn” value [6, 24] was 0 and the “Corn plant response rating” value ([6]; Postemergence, scale 0 to 100) was 80. For the same compound, the “Plant response rating, Corn” value [6, 25] was 70, the “Plant response rating, Corn” value [6, 18] was 80 and the “Corn plant response rating” value [6, 19] was 10. For the same compound, the “Plant response rating, Corn” value [6, 21] was 70, the “Plant response rating (0 = no effect, 100 = complete control), Morningglory” value ([7]; 62 g ai/ha, preemergence) was 0 and the “Plant response rating, Morningglory” value [7, 17] was 0. The “Plant response rating, Morningglory” value [7, 24] was 90, the “Morningglory plant response rating” value ([7]; Postemergence, scale 0 to 100) was 90 and the “Plant response rating, Morningglory” value [7, 18] was 70. The “Morningglory plant response rating” value [7, 19] was 90, the “Plant response rating, Morningglory” value [7, 21] was 50 and the “Plant response rating, Barnyardgrass” value [8, 10] was 90. The “Plant response rating, Barnyardgrass” value [8, 11] was 100, the “Barnyardgrass plant response rating” value [8, 12] was 90 and the “Barnyardgrass plant response rating” value [8, 13] was 95. For the same compound, the “Plant response rating (0 = no effect, 100 = complete control), Velvetleaf” value ([9]; 62 g ai/ha, preemergence) was 40, the “Plant response rating, Velvetleaf” value [9, 17] was 40 and the “Plant response rating, Velvetleaf” value [9, 24] was 100. For the same compound, the “Velvetleaf plant response rating” value ([9]; Postemergence, scale 0 to 100) was 90, the “Plant response rating, Velvetleaf” value [9, 18] was 80 and the “Velvetleaf plant response rating” value [9, 19] was 100. The “Plant response rating, Velvetleaf” value [9, 21] was 80.
